Columns and labels:
[1] = biological target: human Gal-3 (hGal-3) (Homo sapiens (Human), UniProt P17931); experiment: Competitive binding assay: biotinylated hGal-3 binding to microplate-adsorbed asialofetuin (ASF); conditions: Activity on hGal-3; binding of biotinylated hGal-3 to ASF-coated plates; mean values
Summary of the method: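 Serially diluted compounds competed with biotinylated human Gal-3 for binding to plate-adsorbed asialofetuin over 3 h at 4 °C. Bound Gal-3 was detected with streptavidin-peroxidase (80 ng/mL, 1 h, 4 °C) and ABTS substrate. IC50 values are means of several measurements.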

[2] = biological target: human Gal-1 (hGal-1); experiment: Competitive binding assay: biotinylated hGal-1 binding to microplate-adsorbed asialofetuin (ASF); conditions: Activity on hGal-1; binding of biotinylated hGal-1 to ASF-coated plates; mean values
Chain of human Gal-1 (hGal-1) (P09382 2-135 limits assumed): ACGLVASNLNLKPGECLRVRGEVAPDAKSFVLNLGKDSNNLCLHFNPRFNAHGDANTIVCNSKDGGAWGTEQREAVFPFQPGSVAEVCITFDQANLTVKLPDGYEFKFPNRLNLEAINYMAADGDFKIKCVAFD
Summary of the method: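 Biotinylated hGal-1 (300–1000 ng/mL; optionally a cysteine-free all-serine variant) incubated 3 h at 4 °C with compound on asialofetuin-coated plates, then streptavidin-peroxidase 1 h at 4 °C. ABTS readout at OD 410 nm after 30–45 min; IC50 given as mean of several runs.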

Chain of human Gal-3 (hGal-3) (P17931 whole entry): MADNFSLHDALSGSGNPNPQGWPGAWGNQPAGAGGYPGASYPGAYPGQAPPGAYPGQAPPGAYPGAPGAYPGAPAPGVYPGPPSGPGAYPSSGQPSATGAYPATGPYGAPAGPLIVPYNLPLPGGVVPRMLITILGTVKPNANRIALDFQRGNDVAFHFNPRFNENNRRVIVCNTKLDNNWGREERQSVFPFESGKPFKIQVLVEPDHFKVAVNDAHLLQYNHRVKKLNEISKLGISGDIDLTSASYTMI

Compound | IC50 [1] | IC50 [2]
CO[C@@H]1[C@@H](n2cc(-c3cc(F)cc(Cl)c3)nn2)[C@@H](O)[C@@H](CO)O[C@H]1C(=O)N(c1cc(F)cc(C#N)c1)[C@H]1CCCC[C@@H]1O [Example 135, (2R,3R,4S,5R,6R)-4-(4-(3-chloro-5-fluorophenyl)-1H-1,2,3-triazol-1-yl)-N-(3-cyano-5-fluorophenyl)-5-hydroxy-N-((1S,2S)-2-hydroxycyclohexyl)-6-(hydroxymethyl)-3-methoxytetrahydro-2H-pyran-2-carboxamide] | 0.052 µM | 0.27 µM
CO[C@@H]1[C@@H](n2cc(-c3cc(F)c(F)c(F)c3)nn2)[C@@H](O)[C@@H](CO)O[C@H]1C(=O)N(c1cccc(Br)c1)[C@H]1CCCC[C@@H]1O [Example 103, (2R,3R,4S,5R,6R)-N-(3-bromophenyl)-5-hydroxy-N-((1S,2S)-2-hydroxycyclohexyl)-6-(hydroxymethyl)-3-methoxy-4-(4-(3,4,5-trifluorophenyl)-1H-1,2,3-triazol-1-yl)tetrahydro-2H-pyran-2-carboxamide] | 0.025 µM | 0.238 µM
CO[C@@H]1[C@@H](n2cc(-c3cc(F)c(Br)c(F)c3)nn2)[C@@H](O)[C@@H](CO)O[C@H]1C(=O)N(c1cc(Cl)cc(C#N)c1)[C@H]1CCCC[C@@H]1O [Example 154, (2R,3R,4S,5R,6R)-4-(4-(4-bromo-3,5-difluorophenyl)-1H-1,2,3-triazol-1-yl)-N-(3-chloro-5-cyanophenyl)-5-hydroxy-N-((1S,2S)-2-hydroxycyclohexyl)-6-(hydroxymethyl)-3-methoxytetrahydro-2H-pyran-2-carboxamide] | 0.023 µM | 0.957 µM
CC(=O)O[C@@H]1[C@@H](n2cc(-c3cc(F)cc(F)c3)nn2)[C@@H](O)[C@@H](CO)O[C@H]1C(=O)N(Cc1ccccc1C(F)(F)F)[C@H]1CCCC[C@@H]1O [Example 63, (2R,3R,4S,5R,6R)-4-(4-(3,5-difluorophenyl)-1H-1,2,3-triazol-1-yl)-5-hydroxy-2-(((1S,2S)-2-hydroxycyclohexyl)(2-(trifluoromethyl)benzyl)carbamoyl)-6-(hydroxymethyl)tetrahydro-2H-pyran-3-yl acetate] | 0.138 µM | 1.02 µM
COc1cc(C#N)cc(N(C(=O)[C@@H]2O[C@H](CO)[C@H](O)[C@H](n3cc(-c4cc(F)cc(Br)c4)nn3)[C@H]2OC)[C@H]2CCCC[C@@H]2O)c1 [Example 150, (2R,3R,4S,5R,6R)-4-(4-(3-bromo-5-fluorophenyl)-1H-1,2,3-triazol-1-yl)-N-(3-cyano-5-methoxyphenyl)-5-hydroxy-N-((1S,2S)-2-hydroxycyclohexyl)-6-(hydroxymethyl)-3-methoxytetrahydro-2H-pyran-2-carboxamide] | 0.062 µM | 0.671 µM
CO[C@@H]1[C@@H](n2cc(-c3cc(F)c(F)c(F)c3)nn2)[C@@H](O)[C@@H](CO)O[C@H]1C(=O)N(Cc1ccnn1CC1CC1)[C@H]1CCCC[C@@H]1O [Example 46, (2R,3R,4S,5R,6R)-N-((1-(cyclopropylmethyl)-1H-pyrazol-5-yl)methyl)-5-hydroxy-N-((1S,2S)-2-hydroxycyclohexyl)-6-(hydroxymethyl)-3-methoxy-4-(4-(3,4,5-trifluorophenyl)-1H-1,2,3-triazol-1-yl)tetrahydro-2H-pyran-2-carboxamide] | 0.16 µM | 0.497 µM
Nc1nc(Cl)c(CN(C(=O)[C@@H]2O[C@H](CO)[C@H](O)[C@H](n3cc(-c4cc(F)c(F)c(F)c4)nn3)[C@H]2O)[C@H]2CCCC[C@@H]2O)s1 [Example 15, (2R,3R,4S,5R,6R)-N-((2-amino-4-chlorothiazol-5-yl)methyl)-3,5-dihydroxy-N-((1S,2S)-2-hydroxycyclohexyl)-6-(hydroxymethyl)-4-(4-(3,4,5-trifluorophenyl)-1H-1,2,3-triazol-1-yl)tetrahydro-2H-pyran-2-carboxamide] | 0.419 µM | 3.18 µM
CO[C@@H]1[C@@H](n2cc(-c3cc(F)cc(F)c3)nn2)[C@@H](O)[C@@H](CO)O[C@H]1C(=O)N(c1cc(C)cc(Cl)c1)[C@H]1CCCC[C@@H]1O [Example 83, (2R,3R,4S,5R,6R)-N-(3-chloro-5-methylphenyl)-4-(4-(3,5-difluorophenyl)-1H-1,2,3-triazol-1-yl)-5-hydroxy-N-((1S,2S)-2-hydroxycyclohexyl)-6-(hydroxymethyl)-3-methoxytetrahydro-2H-pyran-2-carboxamide] | 0.026 µM | 2.32 µM
O=C(O)CO[C@@H]1[C@@H](n2cc(-c3cc(F)c(F)c(F)c3)nn2)[C@@H](O)[C@@H](CO)O[C@H]1C(=O)N(c1cc(Cl)cc(Cl)c1)[C@H]1CCCC[C@@H]1O [Example 195, 2-(((2R,3R,4S,5R,6R)-2-((3,5-dichlorophenyl)((1S,2S)-2-hydroxycyclohexyl)carbamoyl)-5-hydroxy-6-(hydroxymethyl)-4-(4-(3,4,5-trifluorophenyl)-1H-1,2,3-triazol-1-yl)tetrahydro-2H-pyran-3-yl)oxy)acetic acid] | 0.009 µM | 0.096 µM

Continued, values first:

IC50 [1] | IC50 [2] | Compound
0.016 µM | 0.398 µM | CO[C@@H]1[C@@H](n2cc(-c3cc(F)c(F)c(F)c3)nn2)[C@@H](O)[C@@H](CO)O[C@H]1C(=O)N(c1cc(Cl)cc(C(F)(F)F)c1)[C@H]1CCCC[C@@H]1O [Example 95, (2R,3R,4S,5R,6R)-N-(3-chloro-5-(trifluoromethyl)phenyl)-5-hydroxy-N-((1S,2S)-2-hydroxycyclohexyl)-6-(hydroxymethyl)-3-methoxy-4-(4-(3,4,5-trifluorophenyl)-1H-1,2,3-triazol-1-yl)tetrahydro-2H-pyran-2-carboxamide]
0.471 µM | > 100 µM | C#Cc1cccc(CN(C(=O)[C@@H]2O[C@H](CO)[C@H](O)[C@H](n3cc(-c4cc(F)c(F)c(F)c4)nn3)[C@H]2O)[C@H]2CCCC[C@@H]2O)c1 [Example 3, (2R,3R,4S,5R,6R)-N-(3-ethynylbenzyl)-3,5-dihydroxy-N-((1S,2S)-2-hydroxycyclohexyl)-6-(hydroxymethyl)-4-(4-(3,4,5-trifluorophenyl)-1H-1,2,3-triazol-1-yl)tetrahydro-2H-pyran-2-carboxamide]
0.032 µM | 0.377 µM | CO[C@@H]1[C@@H](n2cc(-c3cc(F)c(F)c(F)c3)nn2)[C@@H](O)[C@@H](CO)O[C@H]1C(=O)N(c1ccc(Cl)c(Br)c1)[C@H]1CCCC[C@@H]1O [Example 99, (2R,3R,4S,5R,6R)-N-(3-bromo-4-chlorophenyl)-5-hydroxy-N-((1S,2S)-2-hydroxycyclohexyl)-6-(hydroxymethyl)-3-methoxy-4-(4-(3,4,5-trifluorophenyl)-1H-1,2,3-triazol-1-yl)tetrahydro-2H-pyran-2-carboxamide]
0.255 µM | 7.25 µM | O=C([C@@H]1O[C@H](CO)[C@H](O)[C@H](n2cc(-c3cc(F)c(F)c(F)c3)nn2)[C@H]1O)N(Cc1ncccc1C(F)(F)F)[C@H]1CCCC[C@@H]1O [Example 13, (2R,3R,4S,5R,6R)-3,5-dihydroxy-N-((1S,2S)-2-hydroxycyclohexyl)-6-(hydroxymethyl)-N-((3-(trifluoromethyl)pyridin-2-yl)methyl)-4-(4-(3,4,5-trifluorophenyl)-1H-1,2,3-triazol-1-yl)tetrahydro-2H-pyran-2-carboxamide]
0.012 µM | 0.528 µM | CO[C@@H]1[C@@H](n2cc(-c3cc(F)c(C)c(F)c3)nn2)[C@@H](O)[C@@H](CO)O[C@H]1C(=O)N(c1cc(Cl)cc(C#N)c1)[C@H]1CCCC[C@@H]1O [Example 159, (2R,3R,4S,5R,6R)-N-(3-chloro-5-cyanophenyl)-4-(4-(3,5-difluoro-4-methylphenyl)-1H-1,2,3-triazol-1-yl)-5-hydroxy-N-((1S,2S)-2-hydroxycyclohexyl)-6-(hydroxymethyl)-3-methoxytetrahydro-2H-pyran-2-carboxamide]
0.053 µM | 7.58 µM | CC(=O)O[C@@H]1[C@@H](n2cc(-c3cc(F)c(Cl)c(F)c3)nn2)[C@@H](O)[C@@H](CO)O[C@H]1C(=O)N(Cc1ccnn1C)[C@H]1CCCC[C@@H]1O [Example 50, (2R,3R,4S,5R,6R)-4-(4-(4-chloro-3,5-difluorophenyl)-1H-1,2,3-triazol-1-yl)-5-hydroxy-2-(((1S,2S)-2-hydroxycyclohexyl)((1-methyl-1H-pyrazol-5-yl)methyl)carbamoyl)-6-(hydroxymethyl)tetrahydro-2H-pyran-3-yl acetate]
0.159 µM | 0.338 µM | CO[C@@H]1[C@@H](n2cc(-c3cc(F)c(F)c(F)c3)nn2)[C@@H](O)[C@@H](CO)O[C@H]1C(=O)N(Cc1cccnc1C(F)(F)F)[C@H]1CCCC[C@@H]1O [Example 26, (2R,3R,4S,5R,6R)-5-hydroxy-N-((1S,2S)-2-hydroxycyclohexyl)-6-(hydroxymethyl)-3-methoxy-N-((2-(trifluoromethyl)pyridin-3-yl)methyl)-4-(4-(3,4,5-trifluorophenyl)-1H-1,2,3-triazol-1-yl)tetrahydro-2H-pyran-2-carboxamide]
0.025 µM | 0.672 µM | CO[C@@H]1[C@@H](n2cc(-c3cc(F)c(Cl)c(Cl)c3)nn2)[C@@H](O)[C@@H](CO)O[C@H]1C(=O)N(c1ccc2ncsc2c1)[C@H]1CCCC[C@@H]1O [Example 168, (2R,3R,4S,5R,6R)-N-(benzo[d]thiazol-6-yl)-4-(4-(3,4-dichloro-5-fluorophenyl)-1H-1,2,3-triazol-1-yl)-5-hydroxy-N-((1S,2S)-2-hydroxycyclohexyl)-6-(hydroxymethyl)-3-methoxytetrahydro-2H-pyran-2-carboxamide]

From patent US12291519B2, “2-hydroxycycloalkane-1-carbamoyl” (Idorsia Pharmaceuticals Ltd, priority 2019, dated 2025)
